Laboratory results as given in patent US9353067B2, “Heterocyclic compounds and uses thereof in the treatment of sexual disorders” (ATIR Holding S.A., priority 2011, dated 2016).
Where “and” joins values, the source holds several entries; their conditions need not be identical. Equal entries are not always repeated. Where two headings read alike, the source gives them in different places.

Legend:
Adrenergic α1 receptor = experiment: Competitive binding, prazosin radioligand; set-up: species or system Wistar rat
Protocol: (§1) R-55 (which comprises a 3-hydroxyphenyl moiety) and the structurally related compounds N-108 (2-{[4-(2-ethoxyphenyl)piperazin-1-yl]methyl}quinazolin-4(3H)-one) and B-39 (7-chloro-2-((5,6-dihydro-4-(2-methoxyphenyl)pyridin-1(2H)-yl)methyl)quinazolin-4(3H)-one) were assayed for competitive binding to a variety of receptors, including D4.4 type dopamine receptor, in order to assess their specificity for D4.4 dopamine receptors.
(§2) The receptors were expressed as human recombinant proteins in CHO cells, except for adrenergic α1 and α2 receptors which were expressed in Wistar rat brain and cerebral cortex cells, respectively, and melanocortin MC4 receptor which was expressed in human recombinant HEK-293 cells. Binding was determined using the following radioligands in the presence of various concentrations of the tested compound:
0.25 nM prazosin for adrenergic α1 receptor,
(§3) The binding assays were performed in accordance with procedures described in the literature (Greengrass & Bremner, 1979; Boyajian & Leslie, 1987; Broadhurst, 1988; Lewis, 2001; Sutton, 1995; Dearry, 1990; Zhou, 1990; Grandy, 1989; Hayes, 1992; Sokoloff, 1990; Van Tol, 1991; Van Tol 1992; Sunahara, 1991; Weinshank, 1991; Schioth, 1996; Schioth 1997; Martin & Humphrey, 1994; May, 2003; Wolf & Schutz, 1997).

[1] = Pharmacokinetics of R-55 following intravenous administration in pigs; format: in vivo, White Landrace female pigs; conditions: 0.2 mg/kg intravenous
Protocol: R-55 and related compounds were assayed in the plasma samples using a Waters (USA) Alliance high performance liquid chromatograph coupled with a Waters Micromass ZQ quadruple mass spectrometer (in ESI+ mode) as a detector with Waters Empower chromatographic and mass spectrometric software for chromatographic data acquisition, processing and instrument control.
The tested compound was extracted from plasma using dichloromethane, followed by concentration by evaporating the extract and dissolution in a low volume chromatographic mobile phase.
The instrument was calibrated using plasma spiked with various concentrations of the tested compound. Enrofloxacin (m/z=360.4) was used as an internal standard.
In order to investigate the pharmacokinetics of R-55, the presence of R-55 in plasma was measured following intravenous administration of R-55 in pigs.
White Landrace female pigs were acclimatized for 2days prior to treatment. 3 pigs were administered 0.2 mg/kg R-55 by intravenous injection at a dose volume of 0.2 ml/kg. Blood samples were withdrawn from each pig via a jugular vein catheter at the following time points: immediately prior to injection (t=0), and 5 minutes, 10 minutes, 15 minutes, 30 minutes, 45 minutes, 60 minutes, 90 minutes, 2 hours, 3 hours, 4 hours, and 6 hours post-injection. All samples were collected in a K3EDTA tube (Greiner). Blood samples were stored on crushed ice after collection. Plasma was separated by centrifugation (10 minutes at 3000 rotations per minute), within two hours post-sampling. Each plasma sample was divided into two aliquots before freezing. Plasma samples were then stored at −20° C. until being dispatched for LCMS analysis.
Clinical observations were performed during the six hours following application.
Pharmacokinetic analysis was performed using the WINNONLIN version 5.0 (Pharsight, USA) computerized software. Area under curves of concentration vs. time (AUC) were calculated using the log linear trapezoidal rule. Area under curves were determined for the time period for which concentrations were measured, i.e., t=0 to 6 hours (AUCall), and for an infinite time period (AUCINF), as determined by extrapolation of the curve to t=∞.

[2] = target: Serotonin 5-HT2C receptor (Homo sapiens (Human), UniProt P28335); experiment: Competitive binding, mesulergine radioligand
Protocol: as §1, §2
1 nM mesulergine for serotonin 5-HT2C receptor.
as §3

Dopamine D1 receptor = Dopamine D1 receptor (Homo sapiens (Human), UniProt P21728); experiment: Competitive binding, SCH-23390 radioligand
Protocol: as §1, §2
(§4) 1.4 nM and 2 nM SCH-23390, respectively, for dopamine D1 and D5 receptors,
as §3

Dopamine D5 receptor = Dopamine D5 receptor (Homo sapiens (Human), UniProt P21918); experiment: Competitive binding, SCH-23390 radioligand
Protocol: as §1, §2, §4, §3

D2 short receptor = D2 short receptor (Homo sapiens (Human), UniProt P14416); experiment: Competitive binding to D2 short receptor ([3H]-spiperone), D4/D2 selectivity; conditions: ratio of concentrations required to inhibit 50% of radioligand binding for each receptor
Protocol: R-55 (which comprises a 3-hydroxyphenyl moiety) and its isomers L-221 (comprising a 4-hydroxyphenyl moiety) and L-238 (comprising a 2-hydroxyphenyl moiety) were assayed for competitive binding to D2 SHORT and D4.4 type dopamine receptors, in order to assess their efficacy for treating sexual disorders. Both receptor types are expressed as human recombinant proteins in CHO cells, as described, for example, in Jarvis et al. (1973); Van Tol et al. (1991) and Van Tol et al. (1992).
Determination of binding to D2 short receptor was performed using [^3H]-spiperone, a D2 receptor ligand (Gundlach et al., 1984), as a radioligand (20-60 Ci/mmol, 0.2 nM) in the presence of various concentrations of the tested compound. Reactions were carried out in 50 mM TRIS-HCl (pH 7.4) containing 120 mM NaCl, 5 mM KCl, 5 mM MgCl2 and 1 mM EDTA, for 60 minutes at 25° C. The reaction was terminated by rapid vacuum filtration onto glass fiber filters. Radioactivity trapped onto the filters was determined (counted) and compared to control values in order to accurately evaluate any interaction of the test compound(s) with the cloned dopamine D2 short binding site.
Selectivity of R-55 was calculated as the D4/D2 binding ratio, based on the ratio of the concentration required to inhibit 50% of the radioligand binding for each receptor.

Dopamine D5 receptor, sequence (P21918 whole entry): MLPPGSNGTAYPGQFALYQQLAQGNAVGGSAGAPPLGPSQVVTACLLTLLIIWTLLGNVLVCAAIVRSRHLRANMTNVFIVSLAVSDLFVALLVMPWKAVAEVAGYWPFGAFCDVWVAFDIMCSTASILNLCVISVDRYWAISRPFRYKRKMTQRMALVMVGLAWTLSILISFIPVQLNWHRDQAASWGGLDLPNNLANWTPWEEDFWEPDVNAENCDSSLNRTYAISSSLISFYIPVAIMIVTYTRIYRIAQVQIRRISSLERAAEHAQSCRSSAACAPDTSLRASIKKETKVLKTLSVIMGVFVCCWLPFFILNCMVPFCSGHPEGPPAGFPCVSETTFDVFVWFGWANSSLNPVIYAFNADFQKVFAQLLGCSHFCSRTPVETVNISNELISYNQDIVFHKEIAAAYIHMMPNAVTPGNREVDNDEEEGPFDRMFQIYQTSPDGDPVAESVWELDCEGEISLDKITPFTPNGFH
Serotonin 5-HT2C receptor, sequence (P28335 33-458): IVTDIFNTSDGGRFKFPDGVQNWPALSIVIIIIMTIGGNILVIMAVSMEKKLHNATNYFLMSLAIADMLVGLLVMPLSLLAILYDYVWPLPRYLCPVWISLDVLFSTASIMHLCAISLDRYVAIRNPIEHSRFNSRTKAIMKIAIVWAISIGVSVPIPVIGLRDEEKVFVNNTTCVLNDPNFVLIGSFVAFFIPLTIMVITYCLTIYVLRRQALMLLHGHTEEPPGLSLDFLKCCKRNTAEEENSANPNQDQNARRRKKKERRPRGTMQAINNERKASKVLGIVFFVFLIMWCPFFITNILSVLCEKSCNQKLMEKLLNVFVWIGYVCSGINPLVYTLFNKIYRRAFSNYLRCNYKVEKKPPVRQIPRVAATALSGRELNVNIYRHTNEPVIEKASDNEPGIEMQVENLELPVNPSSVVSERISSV
Dopamine D1 receptor, sequence (P21728 whole entry): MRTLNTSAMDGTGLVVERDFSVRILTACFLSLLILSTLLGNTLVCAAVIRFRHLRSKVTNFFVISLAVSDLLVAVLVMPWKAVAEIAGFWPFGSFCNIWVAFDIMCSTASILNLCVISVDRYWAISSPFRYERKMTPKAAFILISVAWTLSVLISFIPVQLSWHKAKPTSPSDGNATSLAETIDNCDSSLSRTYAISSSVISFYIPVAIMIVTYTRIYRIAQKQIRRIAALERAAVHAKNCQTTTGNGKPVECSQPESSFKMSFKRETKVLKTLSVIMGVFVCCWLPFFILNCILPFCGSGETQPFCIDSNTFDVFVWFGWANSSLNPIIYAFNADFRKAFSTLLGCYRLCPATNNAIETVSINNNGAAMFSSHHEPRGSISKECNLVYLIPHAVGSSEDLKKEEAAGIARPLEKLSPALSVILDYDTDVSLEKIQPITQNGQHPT
D2 short receptor, sequence (P14416 other isoform, or with tags, fused parts or gaps): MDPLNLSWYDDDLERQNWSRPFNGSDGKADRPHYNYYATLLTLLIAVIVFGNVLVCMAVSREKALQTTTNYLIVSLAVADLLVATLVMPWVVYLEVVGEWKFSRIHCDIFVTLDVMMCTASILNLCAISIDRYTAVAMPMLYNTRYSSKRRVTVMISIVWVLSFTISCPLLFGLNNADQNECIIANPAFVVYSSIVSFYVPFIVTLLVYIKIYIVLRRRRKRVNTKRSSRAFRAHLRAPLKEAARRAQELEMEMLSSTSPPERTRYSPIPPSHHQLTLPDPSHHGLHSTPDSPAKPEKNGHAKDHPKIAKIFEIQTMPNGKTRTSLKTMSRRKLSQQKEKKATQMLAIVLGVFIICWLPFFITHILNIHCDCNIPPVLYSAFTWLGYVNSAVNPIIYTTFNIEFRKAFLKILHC

## O=c1[nH]c(CN2CCN(c3cccc(O)c3)CC2)nc2ccccc12 [Compound R-55, 2-((4-(3-hydroxyphenyl)piperazin-1-yl)methyl)quinazolin-4-one]
Adrenergic α1 receptor
  Competitive binding (%) at 5 μM of tested compound: 10%
[1]
  Time to elimination from the bloodstream after administration: ≤ 30 min
[1]; 0 minutes (immediately prior to injection), individual animals #1-#3
  R-55 plasma concentration: 0 ng/mL
[1]; 5 minutes after injection, individual animals #1-#3
  R-55 plasma concentration: 122.1 ng/mL and 142.2 ng/mL
[1]; 10 minutes after injection, individual animals #1-#3
  R-55 plasma concentration: 112.9 ng/mL and 83.0 ng/mL
[1]; 15 minutes after injection, individual animals #1-#3
  R-55 plasma concentration: 30.4 ng/mL and 76.8 ng/mL and 52.8 ng/mL
[1]; 30 minutes after injection, individual animals #1-#3
  R-55 plasma concentration: 0 ng/mL and 24.9 ng/mL and 22.3 ng/mL
[1]; 45 minutes or more following administration
  R-55 detection in plasma: No R-55 was detected
[1]; extrapolation to infinite time, individual animals
  AUCINF: 2501.3 ng·min/mL and 2132.2 ng·min/mL
[1]; individual animals
  Clearance: 80.0 mL/min/kg and 93.8 mL/min/kg
  Cmax - maximal concentration: 122.1 ng/mL and 142.2 ng/mL
  Mean residence time: 17.0 min and 15.8 min
  T1/2 - half-life: 8.67 min and 10.34 min and 9.67 min
  Volume of distribution: 1.193 L/kg and 1.3081 L/kg
  Volume of distribution at steady state: 1.3589 L/kg and 1.5093 L/kg
[1]; six hours following application
  Clinical observations (side effects): No abnormal side effects were observed
[1]; t=0 to 6 hours, individual animals
  AUCall: 2129.0 ng·min/mL and 1821.3 ng·min/mL
[1]; female, White Landrace, pig, plasma, iv, 0.2 mg/kg, 0 minutes (immediately prior to injection), individual animals #1-#3
  concentration at 0 min: 0 ng/mL
[1]; female, White Landrace, pig, plasma, iv, 0.2 mg/kg, 5 minutes after injection, individual animals #1-#3
  concentration at 5 min: 158 ng/mL
[1]; female, White Landrace, pig, plasma, iv, 0.2 mg/kg, 10 minutes after injection, individual animals #1-#3
  concentration at 10 min: 86.7 ng/mL
[1]; female, White Landrace, pig, plasma, iv, 0.2 mg/kg, extrapolation to infinite time, individual animals
  AUC(0-inf): 32.1 ng·h/mL
[1]; female, White Landrace, pig, plasma, iv, 0.2 mg/kg, individual animals, read-out: Clearance
  Clearance: 104 mL/min/kg
[1]; female, White Landrace, pig, plasma, iv, 0.2 mg/kg, individual animals, read-out: Cmax - maximal concentration
  Cmax: 158 ng/mL
[1]; female, White Landrace, pig, plasma, iv, 0.2 mg/kg, individual animals, read-out: Mean residence time (converted)
  MRT: 14.5 min
[1]; female, White Landrace, pig, plasma, iv, 0.2 mg/kg, individual animals, read-out: T1/2 - half-life
  half-life: 9 to 10 min
[1]; female, White Landrace, pig, plasma, iv, 0.2 mg/kg, individual animals, read-out: Volume of distribution
  Vd: 1.3 L/kg
[1]; female, White Landrace, pig, plasma, iv, 0.2 mg/kg, individual animals, read-out: Volume of distribution at steady state
  Vd: 1.51 L/kg
[1]; female, White Landrace, pig, plasma, iv, 0.2 mg/kg, t=0 to 6 hours, individual animals
  AUC: 27.9 ng·h/mL
[2]
  Competitive binding (%) at 5 μM of tested compound: 5%
Dopamine D1 receptor
  Competitive binding (%) at 5 μM of tested compound: −12%
Dopamine D5 receptor
  Competitive binding (%) at 5 μM of tested compound: 0%
D2 short receptor
  Selectivity D4/D2: 160
